Experimental data published in patent publication US8912180B2, “Heterocyclic compound” (Astellas Pharma Inc., priority 2010, dated 2014).
Counter-ions that a name gives are not always drawn.

What was measured:
[1] = target: T1, human PI3Kδ enzyme (Homo sapiens, UniProt O00329); test: PI3Kδ enzyme inhibitory activity (PI3-Kinase HTRF Assay kit); type: biochemical; conditions: human PI3Kδ 10 ng/well, ATP 30 μM, PIP2 10 μM, room temperature 30 minutes
T1 construct: purchased Millipore Corporation 14-604
Method: 1. PI3Kδ Enzyme Inhibitory Activity
For the experiment, a PI3-Kinase HTRF Assay kit (Millipore Corporation, Catalogue No. 33-016) and a human PI3Kδ enzyme (Millipore Corporation, Catalogue No. 14-604) were used. The measurement method was in accordance with the appended instructions. The overview thereof is as follows.
PI3Kδ (10 ng/well), phosphatidylinositol-4,5-bisphosphate (10 μM), ATP (30 μM), and the test compound were mixed in a 384-well plate (total 20 μL), and incubated at room temperature for 30 minutes. EDTA and biotinylated phosphatidylinositol-3,4,5-triphosphate were added thereto to stop the reaction. Thereafter, a Europium labeled anti-GST antibody, a GST bond GRP1 PH domain, and streptavidin-APC were added thereto, followed by incubation overnight. An HTRF ratio was measured using an HTRF plate reader.

[2] = target: T2, Human PI3Kα (Homo sapiens, UniProt P42336); test: PI3Kα enzyme inhibitory activity (Kinase-Glo Plus luminescence); type: biochemical; conditions: human PI3Kα 12 ng/well, phosphatidylinositol 0.2 μg/well, 37° C. 3 hours
T2 construct: purchased Millipore Corporation 14-602
Method: 2. PI3Kα Enzyme Inhibitory Activity
Human PI3Kα (12 ng/well, Millipore Corporation, Catalogue No. 14-602), phosphatidylinositol (0.2 μg/well), and the test compound were mixed in a 384-well plate in a reaction buffer (50 mM Hepes, 10 mM NaCl, 10 mM MgCl2, 2 mM EGTA, 2 mM DTT, pH 7.3) (total 10 μl), and incubated at 37° C. for 3 hours. After the reaction, 10 μL of a Kinase-Glo Plus reagent (Promega, Catalogue No. V3772) was added thereto, and a luminescence was measured with a luminometer.

[3] = test system: Spleen cells prepared from male LEW/CrlCrlj rats (B cell proliferation); test: Rat B cell proliferation inhibition test (anti-rat IgM, [3H]thymidine); type: cell-based; conditions: anti-rat IgM 3 μg/well, 48 hours culture
Method: 4. Rat B Cell Proliferation Inhibition Test
Spleen cells (1.0×10^5 cells/well) prepared from male LEW/CrlCrlj rats (Charles River Laboratories, Japan, Inc.), mouse F(ab′)2 fragment anti-rat IgM (3 μg/well, SouthernBiotech Associates, Inc., Catalogue No. 3082-14) and the test compound dissolved in DMSO (final DMSO concentration 0.1%) were mixed in a 96-well plate using a 10% FCS-containing RPMI-1640 culture medium (total 200 μL). They were cultured in a CO2 incubator for 48 hours and [^3H]thymidine (925 GBq/mmol, Moravek Biochemicals, Inc., Catalogue No. MT6038) was added thereto at 0.037 MBq/well at 4 hours before completion of culture. Cells were harvested in a GF/C glass filter using a cell harvester, and a radioactivity on the filter was measured using a liquid scintillation counter.

T1 sequence (O00329 whole entry): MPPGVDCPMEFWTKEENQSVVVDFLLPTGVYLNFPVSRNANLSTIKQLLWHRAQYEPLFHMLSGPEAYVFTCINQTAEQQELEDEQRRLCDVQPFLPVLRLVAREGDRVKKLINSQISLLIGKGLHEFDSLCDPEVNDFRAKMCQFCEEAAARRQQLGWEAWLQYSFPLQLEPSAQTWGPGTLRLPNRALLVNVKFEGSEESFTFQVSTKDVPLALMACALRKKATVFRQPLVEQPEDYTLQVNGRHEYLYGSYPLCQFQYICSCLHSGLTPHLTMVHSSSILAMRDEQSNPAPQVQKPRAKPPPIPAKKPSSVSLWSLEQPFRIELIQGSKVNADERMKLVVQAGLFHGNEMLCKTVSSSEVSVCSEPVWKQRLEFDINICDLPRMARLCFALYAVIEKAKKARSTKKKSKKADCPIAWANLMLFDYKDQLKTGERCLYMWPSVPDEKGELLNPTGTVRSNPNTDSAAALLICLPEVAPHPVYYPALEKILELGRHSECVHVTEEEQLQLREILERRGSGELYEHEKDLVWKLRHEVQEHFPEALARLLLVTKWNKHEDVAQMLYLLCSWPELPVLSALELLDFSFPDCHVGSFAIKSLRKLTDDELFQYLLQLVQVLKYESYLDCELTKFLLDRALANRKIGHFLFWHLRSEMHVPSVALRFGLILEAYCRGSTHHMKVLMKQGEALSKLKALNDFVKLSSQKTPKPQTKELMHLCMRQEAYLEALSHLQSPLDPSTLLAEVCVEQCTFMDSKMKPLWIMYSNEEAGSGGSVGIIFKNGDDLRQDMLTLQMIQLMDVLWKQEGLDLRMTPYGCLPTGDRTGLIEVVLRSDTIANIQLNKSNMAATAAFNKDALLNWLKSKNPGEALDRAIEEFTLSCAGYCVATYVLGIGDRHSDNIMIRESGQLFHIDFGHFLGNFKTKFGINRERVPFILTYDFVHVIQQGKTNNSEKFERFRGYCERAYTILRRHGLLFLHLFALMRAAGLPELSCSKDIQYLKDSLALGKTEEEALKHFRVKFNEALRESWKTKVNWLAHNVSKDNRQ
T1 sequence (P27986 whole entry partner): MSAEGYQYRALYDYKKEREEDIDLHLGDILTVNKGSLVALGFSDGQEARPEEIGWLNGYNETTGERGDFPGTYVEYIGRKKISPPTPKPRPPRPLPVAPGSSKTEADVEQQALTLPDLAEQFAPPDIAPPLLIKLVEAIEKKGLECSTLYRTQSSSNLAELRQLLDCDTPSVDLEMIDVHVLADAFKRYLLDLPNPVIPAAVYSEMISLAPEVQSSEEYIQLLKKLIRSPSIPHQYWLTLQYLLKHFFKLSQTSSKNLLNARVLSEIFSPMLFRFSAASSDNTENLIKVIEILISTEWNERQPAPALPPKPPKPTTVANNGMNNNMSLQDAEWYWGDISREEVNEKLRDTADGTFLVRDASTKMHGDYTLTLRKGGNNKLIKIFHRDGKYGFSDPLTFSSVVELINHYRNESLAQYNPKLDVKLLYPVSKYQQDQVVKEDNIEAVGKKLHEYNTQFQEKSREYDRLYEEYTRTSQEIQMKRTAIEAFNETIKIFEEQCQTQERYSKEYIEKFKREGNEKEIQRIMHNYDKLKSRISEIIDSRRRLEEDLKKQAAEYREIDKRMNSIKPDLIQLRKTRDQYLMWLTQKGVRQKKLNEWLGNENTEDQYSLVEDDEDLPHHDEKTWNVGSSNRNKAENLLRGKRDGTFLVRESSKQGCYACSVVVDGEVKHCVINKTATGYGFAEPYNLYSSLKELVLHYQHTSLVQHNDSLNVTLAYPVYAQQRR
T2 sequence (P42336 whole entry): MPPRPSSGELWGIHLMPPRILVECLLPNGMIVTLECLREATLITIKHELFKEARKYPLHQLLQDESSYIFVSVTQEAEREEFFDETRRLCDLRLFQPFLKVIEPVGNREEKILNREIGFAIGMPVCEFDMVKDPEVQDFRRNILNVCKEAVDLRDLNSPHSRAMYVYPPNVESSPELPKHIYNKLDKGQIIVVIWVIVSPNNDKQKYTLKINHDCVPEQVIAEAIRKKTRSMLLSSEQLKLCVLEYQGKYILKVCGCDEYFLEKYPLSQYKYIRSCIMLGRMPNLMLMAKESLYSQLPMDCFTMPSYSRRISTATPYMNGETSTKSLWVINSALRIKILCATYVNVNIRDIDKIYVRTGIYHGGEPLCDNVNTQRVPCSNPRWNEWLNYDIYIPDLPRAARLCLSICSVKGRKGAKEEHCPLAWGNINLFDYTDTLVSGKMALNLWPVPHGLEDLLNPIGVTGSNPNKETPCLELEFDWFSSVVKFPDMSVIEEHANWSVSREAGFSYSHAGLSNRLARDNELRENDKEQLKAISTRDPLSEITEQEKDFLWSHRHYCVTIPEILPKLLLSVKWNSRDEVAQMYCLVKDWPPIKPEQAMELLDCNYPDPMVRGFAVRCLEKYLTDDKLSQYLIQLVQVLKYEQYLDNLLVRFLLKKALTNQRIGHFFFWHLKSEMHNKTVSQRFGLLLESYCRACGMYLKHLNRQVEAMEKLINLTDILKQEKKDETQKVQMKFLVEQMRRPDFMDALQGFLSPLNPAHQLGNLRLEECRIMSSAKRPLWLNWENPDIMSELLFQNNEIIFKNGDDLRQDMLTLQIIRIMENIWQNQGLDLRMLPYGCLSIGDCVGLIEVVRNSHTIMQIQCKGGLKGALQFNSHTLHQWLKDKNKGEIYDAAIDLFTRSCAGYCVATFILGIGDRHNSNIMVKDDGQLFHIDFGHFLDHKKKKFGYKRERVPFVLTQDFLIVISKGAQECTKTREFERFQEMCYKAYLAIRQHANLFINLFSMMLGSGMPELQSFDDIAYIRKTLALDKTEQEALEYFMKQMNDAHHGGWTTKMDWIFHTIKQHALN
T2 sequence (P27986 whole entry partner): as the sequence (P27986 whole entry partner) above

| SMILES | IC50 [1] [nM] | IC50 [2] [nM] | IC50 [3] [nM] |
| --- | --- | --- | --- |
| COC(=O)N1CCC(C(=O)N2CC[C@H](Nc3cc(-n4c(C(F)F)nc5ccccc54)nc(N4CCOCC4)n3)C2)CC1 [A298] | 28 | 3500 | 1.2 |
| O=C(CC1CCOCC1)N1CC[C@H](Nc2cc(-n3c(C(F)F)nc4ccccc43)nc(N3CCOCC3)n2)C1 [A300] | 26 | 6500 | 2.6 |
| CN1CC(C(=O)N2CC[C@H](Oc3cc(-n4c(C(F)F)nc5ccccc54)nc(N4CCOCC4)n3)C2)CC1=O (stereo partly drawn) [A451] | 35 | 2200 | 1.2 |
| CC(=O)N1CCC(CC(=O)N2CC[C@H](Nc3cc(-n4c(C(F)F)nc5ccccc54)nc(N4CCOCC4)n3)C2)CC1 [A463] | 27 | 3100 | 1.4 |
| CC(C)(C)OC(=O)N1CC[C@H](Nc2nc(N3CCOCC3)cc(-n3c(C(F)F)nc4ccccc43)n2)C1 [Example 1, tert-butyl (3S)-3-({4-[2-(difluoromethyl)-1H-benzimidazol-1-yl]-6-morpholin-4-ylpyrimidin-2-yl}amino)pyrrolidine-1-carboxylate] | 29 | 2800 |  |
| CN1CCC(CNc2cc(-n3c(C(F)F)nc4ccccc43)nc(N3CCOCC3)n2)CC1 [Example 4] | 60 | > 3000 |  |
| C[C@H]1COCCN1c1cc(-n2c(C(F)F)nc3ccccc32)nc(NCC2CCN(C(=O)OC(C)(C)C)CC2)n1 [Example 13] | 36 | 980 |  |
| CC(C)(C)OC(=O)N1CCC(CNc2nc(N3CCOC[C@@H]3CF)cc(-n3c(C(F)F)nc4ccccc43)n2)CC1 [Example 16] | 69 | > 10000 |  |
| CC(C)(C)OC(=O)N1CCC[C@H](CNc2nc(N3CCOCC3)cc(-n3c(C(F)F)nc4ccccc43)n2)C1 [Example 18] | 50 | 7700 |  |
| FC(F)c1nc2ccccc2n1-c1cc(N2CCOCC2)nc(NCCC2CCN(Cc3ccccc3)CC2)n1 [Example 25] | 69 | 6200 |  |
| OC1CCC(N2CCC(CNc3nc(N4CCOCC4)cc(-n4c(C(F)F)nc5ccccc54)n3)CC2)CC1 (stereo not drawn) [Example 28] | 35 | > 3000 |  |
| FC(F)c1nc2ccccc2n1-c1cc(N2CCOCC2)nc(NCC2CCN(CC3CCOCC3)CC2)n1 [Example 39] | 27 | 3900 |  |
| CN(C)CCN1CC[C@H](Nc2nc(N3CCOCC3)cc(-n3c(C(F)F)nc4ccccc43)n2)C1 [Example 45, 4-[2-(difluoromethyl)-1H-benzimidazol-1-yl]-N-{(3S)-1-[2-(dimethylamino)ethyl]pyrrolidin-3-yl}-6-morpholin-4-ylpyrimidin-2-amine dihydrochloride] | 56 | 6800 |  |
| CN(C)CC(=O)N1CCC(CNc2nc(N3CCOCC3)nc(-n3c(C(F)F)nc4ccccc43)n2)CC1 [Example 67] | 47 | 990 |  |
| Fc1ccc(N2CCC(CNc3nc(N4CCOCC4)cc(-n4c(C(F)F)nc5ccccc54)n3)CC2)cc1 [Example 75] | 25 | 5400 |  |
| FC(F)c1nc2ccccc2n1-c1cc(N2CCOCC2)nc(NCC23CCC(N4CCOCC4)(CC2)CC3)n1 [Example 120] | 27 | 6400 |  |
| COC(=O)N[C@@H]1CCN([C@H]2CC[C@H](Nc3cc(-n4c(C(F)F)nc5ccccc54)nc(N4CCOCC4)n3)CC2)C1=O [Example 371] | 35 | 5000 |  |

More lines, in order of falling IC50 [1], values ahead:

| IC50 [1] [nM] | IC50 [2] [nM] | SMILES | IC50 [3] [nM] |
| --- | --- | --- | --- |
| 25 | 4900 | O=C(CC1CCCO1)N1CC[C@H](Nc2cc(-n3c(C(F)F)nc4ccccc43)nc(N3CCOCC3)n2)C1 (stereo partly drawn) [A299] | 2.5 |
| 25 | 1400 | O=C(CN1CCCCC1)N1CC[C@H](Nc2cc(-n3c(C(F)F)nc4ccccc43)nc(N3CCOCC3)n2)C1 [A475] | 1.1 |
| 23 | 2200 | C[C@H]1COCCN1c1cc(-n2c(C(F)F)nc3ccccc32)nc(NCC2CCN(C3CCOCC3)CC2)n1 [Example 38] | 2.9 |
| 22 |  | CN(C)CC(=O)N1CC(Nc2nc(N3CCOCC3)cc(-n3c(C(F)F)nc4ccccc43)n2)C1 [Example 69] |  |
| 20 | 1400 | O=C(C1CCOC1)N1CC[C@H](Oc2cc(-n3c(C(F)F)nc4ccccc43)nc(N3CCOCC3)n2)C1 (stereo partly drawn) [A449] | 0.4 |
| 20 | > 10000 | FC(F)c1nc2ccccc2n1-c1cc(OCC2CCN(C3CCOCC3)CC2)nc(N2CCOCC2)n1 [Example 40] | 9 |
| 19 | 3200 | O=C(C1CCOCC1)N1CC[C@H](Nc2cc(-n3c(C(F)F)nc4ccccc43)nc(N3CCOCC3)n2)C1 [A293] | 2.6 |
| 19 |  | CC(=O)N1CCC(CC(=O)N2CC(Nc3cc(-n4c(C(F)F)nc5ccccc54)nc(N4CCOCC4)n3)C2)CC1 [A564] | 2.2 |
| 19 | 1800 | C[C@H]1COCCN1c1cc(-n2c(C(F)F)nc3ccccc32)nc(NC[C@H]2CCCN(C(=O)OC(C)(C)C)C2)n1 [Example 20] |  |
| 18 | 4200 | FCC(CF)N1CCC(CNc2nc(N3CCOCC3)cc(-n3c(C(F)F)nc4ccccc43)n2)CC1 [Example 35] |  |
| 18 | 5400 | Fc1ccccc1N1CCC(CNc2nc(N3CCOCC3)cc(-n3c(C(F)F)nc4ccccc43)n2)CC1 [Example 77] |  |
| 17 | 6700 | FC(F)c1nc2ccccc2n1-c1cc(N2CCOCC2)nc(NCC2CCN(C3CCC(F)(F)CC3)CC2)n1 [Example 36] | 6.8 |
| 15 | 2000 | CN1CC(C(=O)N2CC[C@H](Nc3cc(-n4c(C(F)F)nc5ccccc54)nc(N4CCOCC4)n3)C2)CC1=O (stereo partly drawn) [A466] | 1.8 |
| 14 | 2900 | O=C1CC[C@@H](C(=O)N2CC(Nc3cc(-n4c(C(F)F)nc5ccccc54)nc(N4CCOCC4)n3)C2)N1 [A562] | 3.9 |
| 14 | 5000 | FC(F)c1nc2ccccc2n1-c1cc(N2CCOCC2)nc(NCC2CCN(c3ccccc3)CC2)n1 [Example 44, 4-[2-(difluoromethyl)-1H-benzimidazol-1-yl]-6-(morpholin-4-yl)-N-[(1-phenylpiperidin-4-yl)methyl]pyrimidin-2-amine dihydrochloride] |  |
| 12 | > 3000 | CC(C)(C)OC(=O)N1CCC(N2CCC(CNc3nc(N4CCOCC4)cc(-n4c(C(F)F)nc5ccccc54)n3)CC2)CC1 [Example 30] |  |
| 10 | 2200 | O=C(C1CCOC1)N1CC[C@H](Nc2cc(-n3c(C(F)F)nc4ccccc43)nc(N3CCOCC3)n2)C1 (stereo partly drawn) [A464] |  |
| 8.6 | 8000 | FC(F)c1nc2ccccc2n1-c1cc(N2CCOCC2)nc(NCC2CCN([C@H]3CC[C@@H](F)CC3)CC2)n1 [Example 43-2, 4-[2-(difluoromethyl)-1H-benzimidazol-1-yl]-N-{[1-(cis-4-fluorocyclohexyl)piperidin-4-yl]methyl}-6-(morpholin-4-yl)pyrimidin-2-amine dihydrochloride] | 3.1 |
| 8.5 | 2900 | COc1ccc(N2CCC(CNc3nc(N4CCOCC4)cc(-n4c(C(F)F)nc5ccccc54)n3)CC2)cc1 [Example 78] |  |
| 7.4 | 3800 | O=C([C@H]1CCCO1)N1CC[C@H](Nc2cc(-n3c(C(F)F)nc4ccccc43)nc(N3CCOCC3)n2)C1 [A290] | 2.2 |
| 5.8 | 3300 | C[C@@H]1C[C@H](N2CCC(CNc3nc(N4CCOCC4)cc(-n4c(C(F)F)nc5ccccc54)n3)CC2)C[C@H](C)O1 [Example 194] |  |
| 5.7 | > 3000 | CN(C)CC(=O)N[C@H]1CCC[C@H](Nc2cc(-n3c(C(F)F)nc4ccccc43)nc(N3CCOCC3)n2)C1 [Example 100] |  |
| 5.2 | 5900 | O=C(CNCC1CC1)N[C@H]1CC[C@H](Oc2cc(-n3c(C(F)F)nc4ccccc43)nc(N3CCOCC3)n2)CC1 [Example 133] |  |
| 4.5 | > 3000 | FC(F)c1nc2ccccc2n1-c1cc(N[C@H]2CCC[C@@H](N3CCOCC3)C2)nc(N2CCOCC2)n1 [Example 123] |  |
